From US7192950B2, “Benzazepines and related heterocyclic derivatives which are useful as orexin receptor antagonists” (Actelion Pharmaceuticals, Ltd., priority 2000, dated 2007)

Experiments:
human orexin-1 receptor = target: T1, human orexin-1 receptor (Homo sapiens, UniProt O43613); test: Intracellular calcium measurements (FLIPR), OX1 receptor antagonist activity; type: cell-based; conditions: CHO cells expressing human orexin-1 receptor; 10 nM orexin-A as agonist; fluo-3 calcium signal
T1 construct: expressed in transfected cells; host or cells: CHO cells (G418 selection)
T1 sequence (O43613 1-425): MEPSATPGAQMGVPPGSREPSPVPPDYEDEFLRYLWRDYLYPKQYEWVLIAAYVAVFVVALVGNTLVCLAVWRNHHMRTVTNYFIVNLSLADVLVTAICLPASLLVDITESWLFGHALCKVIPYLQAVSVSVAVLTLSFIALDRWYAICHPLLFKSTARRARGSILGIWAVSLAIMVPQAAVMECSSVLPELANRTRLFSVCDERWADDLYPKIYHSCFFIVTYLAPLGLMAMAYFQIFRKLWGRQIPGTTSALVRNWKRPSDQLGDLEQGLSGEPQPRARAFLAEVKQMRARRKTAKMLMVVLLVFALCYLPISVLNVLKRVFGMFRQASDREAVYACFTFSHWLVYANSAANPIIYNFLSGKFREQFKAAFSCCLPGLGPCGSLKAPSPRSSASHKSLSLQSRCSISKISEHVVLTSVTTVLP
Protocol: (§1) The OX1 and OX2 receptor antagonist activities of the compounds of general formula (I) were determined in accordance with the following experimental method.
(§2) Intracellular Calcium Measurements
(§3) Chinese hamster ovary (CHO) cells expressing the human orexin-1 receptor and the human orexin-2 receptor, respectively, were grown in culture medium (Ham F-12 with L Glutamine) containing 300 μg/ml G418, 100 U/ml penicillin, 100 μg/ml streptomycin and 10% inactivated foetal calf serum (FCS).
(§4) The cells were seeded at 80'000 cells/well into 96-well black clear bottom sterile plates (Costar) which had been precoated with 1% gelatine in Hanks' Balanced Salt Solution (HBSS). All reagents were from Gibco BRL.
(§5) The seeded plates were incubated overnight at 37° C. in 5% CO2.
(§6) Human orexin-A as an agonist was prepared as 1 mM stock solution in methanol:water (1:1), diluted in HBSS containing 0.1% BSA and 2 mM HEPES for use in the assay at a final concentration of 10 nM.
(§7) Antagonists were prepared as 10 mM stock solution in DMSO, then diluted in 96-well plates, first in DMSO, then in HBSS containing 0.1% bovine serum albumin (BSA) and 2 mM HEPES.
(§8) On the day of the assay, 100 μl of loading medium (HBSS containing 1% FCS, 2 mM HEPES, 5 mM probenecid (Sigma) and 3 μM of the fluorescent calcium indicator fluo-3 AM (1 mM stock solution in DMSO with 10% pluronic acid Molecular Probes)) was added to each well.
(§9) The 96-well plates were incubated for 60 min at 37° C. in 5% CO2. The loading solution was then aspirated and cells were washed 3 times with 200 μl HBSS containing 2.5 mM probenecid, 0.1% BSA, 2 mM HEPES. 100 μl of that same buffer was left in each well.
(§10) Within the Fluorescent Imaging Plate Reader (FLIPR, Molecular Devices), antagonists were added to the plate in a volume of 50 μl, incubated for 20 min and finally 100 μl of agonist was added. Fluorescence was measured for each well at 1 second intervals, and the height of each fluorescence peak was compared to the height of the fluorescence peak induced by 10 nM orexin-A with buffer in place of antagonist. For each antagonist; IC50 values (the concentration of compound needed to inhibit 50% of the agonistic response) were determined.

human orexin-2 receptor = target: T2, human orexin-2 receptor (Homo sapiens, UniProt O43614); test: Intracellular calcium measurements (FLIPR), OX2 receptor antagonist activity; type: cell-based; conditions: CHO cells expressing human orexin-2 receptor; 10 nM orexin-A as agonist; fluo-3 calcium signal
T2 construct: expressed in transfected cells; host or cells: CHO cells (G418 selection)
T2 sequence (O43614 1-444): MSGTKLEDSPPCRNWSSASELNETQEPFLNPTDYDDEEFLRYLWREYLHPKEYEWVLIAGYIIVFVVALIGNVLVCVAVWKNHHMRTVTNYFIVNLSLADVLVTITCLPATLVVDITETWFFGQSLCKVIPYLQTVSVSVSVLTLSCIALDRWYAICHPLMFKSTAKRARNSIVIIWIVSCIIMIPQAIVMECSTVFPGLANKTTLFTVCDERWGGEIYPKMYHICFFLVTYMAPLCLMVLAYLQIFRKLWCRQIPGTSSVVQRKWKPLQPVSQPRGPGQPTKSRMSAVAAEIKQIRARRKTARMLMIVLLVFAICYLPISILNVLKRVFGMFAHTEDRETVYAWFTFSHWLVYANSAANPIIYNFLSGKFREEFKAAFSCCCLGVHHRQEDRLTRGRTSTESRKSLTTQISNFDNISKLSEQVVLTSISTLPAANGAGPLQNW
Protocol: as §1, §2, §3, §4, §5, §6, §7, §8, §9, §10

## COc1ccc(CC2c3cc(OC)c(OC)cc3CCCN2C(C(=O)NCc2ccco2)c2ccccc2)cc1OC (centres unmarked) [Example 25, 2-[1-(3,4-Dimethoxy-benzyl)-7,8-dimethoxy-1,3,4,5-tetrahydro-benzo[c]azepin-2-yl]-N-furan-2-ylmethyl-2-phenyl-acetamide]
Human orexin-1 receptor
  IC50: 41 nM
Human orexin-2 receptor
  IC50: 241 nM

## COc1ccc(CC2c3cc(OC)c(OC)cc3CCCN2CC(=O)NC2CCc3ccccc32)cc1OC (centres unmarked) [Example 9, 2-[1-(3,4-Dimethoxy-benzyl)-7,8-dimethoxy-1,3,4,5-tetrahydro-benzo[c]azepin-2-yl]-N-indan-1-yl-acetamide]
Human orexin-1 receptor
  IC50: 23 nM
Human orexin-2 receptor
  IC50: 1240 nM

## COc1ccc(CC2c3cc(OC)c(OC)cc3CCCN2CC(=O)NC2Cc3ccccc3C2)cc1OC (centres unmarked) [Example 3, 2-[1-(3,4-Dimethoxy-benzyl)-7,8-dimethoxy-1,3,4,5-tetrahydro-benzo[c]azepin-2-yl]-N-indan-2-yl-acetamide]
Human orexin-1 receptor
  IC50: 99 nM
Human orexin-2 receptor
  IC50: > 10000 nM

## COC(=O)CCNC(=O)C(c1ccccc1)N1CCCc2cc(OC)c(OC)cc2C1Cc1ccc(OC)c(OC)c1 (centres unmarked) [Example 34, 3-{2-[1-(3,4-Dimethoxy-benzyl)-7,8-dimethoxy-1,3,4,5-tetrahydro-benzo[c]azepin-2-yl]-2-phenyl-acetylamino}-propionic acid methyl ester]
Human orexin-1 receptor
  IC50: 41 nM
Human orexin-2 receptor
  IC50: 9190 nM

## COc1ccc(CC2c3cc(OC)c(OC)cc3OCCN2CC(=O)NC2CCc3ccccc32)cc1OC (racemic) [Example 5, 2-[5-(3,4-Dimethoxy-benzyl)-7,8-dimethoxy-2,3-dihydro-5H-benzo[f][1,4]oxazepin-4-yl]-N-indan-1-yl-acetamide]
Human orexin-1 receptor
  IC50: 64 nM
Human orexin-2 receptor
  IC50: 7900 nM

## COc1ccc(CC2c3cc(OCC(F)F)c(OC)cc3CCCN2CC(=O)NC2CCc3ccccc32)cc1OC (centres unmarked) [Example 69, 2-[8-(2,2-Difluoro-ethoxy)-1-(3,4-dimethoxy-benzyl)-7-methoxy-1,3,4,5-tetrahydro-benzo[c]azepin-2-yl]-N-indan-1-yl-acetamide]
Human orexin-1 receptor
  IC50: 9 nM
Human orexin-2 receptor
  IC50: 349 nM

## COc1ccc(CC2c3cc(OC)c(OC)cc3CCCN2C(C(=O)NCc2nc3ccccc3[nH]2)c2ccccc2)cc1OC (centres unmarked) [Example 35, N-(1H-Benzoimidazol-2-ylmethyl)-2-[1-(3,4-dimethoxy-benzyl)-7,8-dimethoxy-1,3,4,5-tetrahydro-benzo[c]azepin-2-yl]-2-phenyl-acetamide]
Human orexin-1 receptor
  IC50: 32 nM
Human orexin-2 receptor
  IC50: 7040 nM

## COc1ccc(CC2c3cc(OC)c(OC)cc3CCCN2C(C(=O)NC2Cc3ccccc3C2)c2ccccc2)cc1OC (centres unmarked) [Example 20, 2-[1-(3,4-Dimethoxy-benzyl)-7,8-dimethoxy-1,3,4,5-tetrahydro-benzo[c]azepin-2-yl]-N-indan-2-yl-2-phenyl-acetamide]
Human orexin-1 receptor
  IC50: 23 nM
Human orexin-2 receptor
  IC50: 231 nM

## COc1ccc(CC2c3cc(OC)c(OC)cc3CCCN2C(C(=O)NCc2ccc3c(c2)OCO3)c2ccccc2)cc1OC (centres unmarked) [Example 23, N-Benzo[1,3]dioxol-5-ylmethyl-2-[1-(3,4-dimethoxy-benzyl)-7,8-dimethoxy-1,3,4,5-tetrahydro-benzo[c]azepin-2-yl]-2-phenyl-acetamide]
Human orexin-1 receptor
  IC50: 21 nM
Human orexin-2 receptor
  IC50: 189 nM

## COc1ccc(CC2c3cc(OC(C)C)c(OC)cc3CCCN2CC(=O)NC2CCc3ccccc32)cc1OC (centres unmarked) [Example 68, 2-[1-(3,4-Dimethoxy-benzyl)-8-isopropoxy-7-methoxy-1,3,4,5-tetrahydro-benzo[c]azepin-2-yl]-N-indan-1-yl-acetamide]
Human orexin-1 receptor
  IC50: 12 nM
Human orexin-2 receptor
  IC50: 174 nM
